Laboratory results taken from the NIST ThermoML archive (doi:10.1016/j.jct.2006.08.009).
± gives the expanded uncertainty stated by the source.

Assay: mn = molality of the nth substance listed, in mol/kg
Details: 350 kPa, Liquid; for apparent molar heat capacity: Extra sensitive DSC

OC[C@@H](O)[C@H](O)[C@H](O)[C@@H](O)CO [dulcitol] + O
Details	apparent molar heat capacity [J/K/mol]	mass density [kg/m3]
278.15 K, m1 = 0.0188	374 ± 60	1001.19 ± 0.18
278.15 K, m1 = 0.0418	369 ± 30	1002.77 ± 0.18
278.15 K, m1 = 0.0698	379.2 ± 18	1004.44 ± 0.18
278.15 K, m1 = 0.0986	380.1 ± 19	1006.47 ± 0.19
278.15 K, m1 = 0.119	370.3 ± 16	1007.99 ± 0.19
278.15 K, m1 = 0.1492	379.2 ± 13	1009.86 ± 0.19
283.15 K, m1 = 0.0188	394 ± 58	1000.99 ± 0.18
283.15 K, m1 = 0.0418	389 ± 30	1002.48 ± 0.18
283.15 K, m1 = 0.0698	397.8 ± 17	1004.2 ± 0.18
283.15 K, m1 = 0.0986	398.6 ± 18	1006.13 ± 0.19
283.15 K, m1 = 0.119	388.5 ± 16	1007.58 ± 0.19
283.15 K, m1 = 0.1492	397.5 ± 13	1009.47 ± 0.19
288.15 K, m1 = 0.0188	409 ± 57	1000.42 ± 0.18
288.15 K, m1 = 0.0418	405 ± 28	1001.85 ± 0.18
288.15 K, m1 = 0.0698	412.3 ± 17	1003.61 ± 0.18
288.15 K, m1 = 0.0986	413.3 ± 18	1005.5 ± 0.19
288.15 K, m1 = 0.119	402.7 ± 15	1006.94 ± 0.19
288.15 K, m1 = 0.1492	412 ± 13	1008.75 ± 0.19
293.15 K, m1 = 0.0188	423 ± 57	–
293.15 K, m1 = 0.0418	418 ± 28	–
293.15 K, m1 = 0.0698	425.3 ± 17	–
293.15 K, m1 = 0.0986	426.5 ± 18	–
293.15 K, m1 = 0.119	416.6 ± 15	–
293.15 K, m1 = 0.1492	425 ± 12	–
298.15 K, m1 = 0.0188	434 ± 56	998.35 ± 0.18
298.15 K, m1 = 0.0418	430 ± 28	999.74 ± 0.18
298.15 K, m1 = 0.0698	436.4 ± 16	1001.5 ± 0.18
298.15 K, m1 = 0.0986	437.6 ± 18	1003.47 ± 0.18
298.15 K, m1 = 0.119	428.5 ± 15	1004.74 ± 0.18
298.15 K, m1 = 0.1492	436.1 ± 12	1006.52 ± 0.18
303.15 K, m1 = 0.0188	444 ± 54	–
303.15 K, m1 = 0.0418	439 ± 27	–
303.15 K, m1 = 0.0698	446 ± 16	–
303.15 K, m1 = 0.0986	447.4 ± 18	–
303.15 K, m1 = 0.119	438.9 ± 15	–
303.15 K, m1 = 0.1492	445.8 ± 12	–
308.15 K, m1 = 0.0188	453 ± 54	995.36 ± 0.19
308.15 K, m1 = 0.0418	448 ± 27	996.65 ± 0.18
308.15 K, m1 = 0.0698	454.4 ± 16	998.44 ± 0.18
308.15 K, m1 = 0.0986	456 ± 17	1000.21 ± 0.18
308.15 K, m1 = 0.119	447.9 ± 15	1001.54 ± 0.18
308.15 K, m1 = 0.1492	454.3 ± 12	1003.38 ± 0.18
313.15 K, m1 = 0.0188	461 ± 53	–
313.15 K, m1 = 0.0418	455.7 ± 27	–
313.15 K, m1 = 0.0698	462.1 ± 16	–
313.15 K, m1 = 0.0986	463.5 ± 17	–
313.15 K, m1 = 0.119	456 ± 14	–
313.15 K, m1 = 0.1492	461.9 ± 12	–
318.15 K, m1 = 0.0188	468 ± 53	991.52 ± 0.19
318.15 K, m1 = 0.0418	462.7 ± 26	992.87 ± 0.19
318.15 K, m1 = 0.0698	468.8 ± 15	994.59 ± 0.19
318.15 K, m1 = 0.0986	470.3 ± 17	996.35 ± 0.18
318.15 K, m1 = 0.119	463.3 ± 15	997.6 ± 0.18
318.15 K, m1 = 0.1492	468.7 ± 12	999.44 ± 0.17
323.15 K, m1 = 0.0188	475 ± 51	–
323.15 K, m1 = 0.0418	469 ± 26	–
323.15 K, m1 = 0.0698	474.9 ± 15	–
323.15 K, m1 = 0.0986	476.5 ± 17	–
323.15 K, m1 = 0.119	469.8 ± 14	–
323.15 K, m1 = 0.1492	474.8 ± 12	–
328.15 K, m1 = 0.0188	481 ± 50	986.98 ± 0.2
328.15 K, m1 = 0.0418	474.7 ± 26	988.34 ± 0.2
328.15 K, m1 = 0.0698	480.5 ± 15	990.01 ± 0.19
328.15 K, m1 = 0.0986	482.1 ± 17	991.76 ± 0.19
328.15 K, m1 = 0.119	475.7 ± 14	993.01 ± 0.19
328.15 K, m1 = 0.1492	480.4 ± 12	994.81 ± 0.18
333.15 K, m1 = 0.0188	486 ± 50	–
333.15 K, m1 = 0.0418	479.8 ± 26	–
333.15 K, m1 = 0.0698	485.6 ± 15	–
333.15 K, m1 = 0.0986	487.2 ± 17	–
333.15 K, m1 = 0.119	481 ± 14	–
333.15 K, m1 = 0.1492	485.5 ± 12	–
338.15 K, m1 = 0.0188	491 ± 49	981.81 ± 0.21
338.15 K, m1 = 0.0418	484.5 ± 25	983.19 ± 0.21
338.15 K, m1 = 0.0698	490.1 ± 15	984.85 ± 0.2
338.15 K, m1 = 0.0986	491.8 ± 17	986.55 ± 0.2
338.15 K, m1 = 0.119	486 ± 14	987.85 ± 0.2
338.15 K, m1 = 0.1492	490.1 ± 12	989.64 ± 0.19
343.15 K, m1 = 0.0188	495 ± 49	–
343.15 K, m1 = 0.0418	488.6 ± 25	–
343.15 K, m1 = 0.0698	494.2 ± 14	–
343.15 K, m1 = 0.0986	495.9 ± 17	–
343.15 K, m1 = 0.119	490.4 ± 14	–
343.15 K, m1 = 0.1492	494.3 ± 12	–
348.15 K, m1 = 0.0188	499 ± 48	976.1 ± 0.22
348.15 K, m1 = 0.0418	492.2 ± 25	977.46 ± 0.22
348.15 K, m1 = 0.0698	497.9 ± 14	979.12 ± 0.22
348.15 K, m1 = 0.0986	499.6 ± 17	980.85 ± 0.21
348.15 K, m1 = 0.119	494.4 ± 14	982.09 ± 0.21
348.15 K, m1 = 0.1492	497.9 ± 12	983.86 ± 0.21
353.15 K, m1 = 0.0188	502 ± 47	–
353.15 K, m1 = 0.0418	495.4 ± 25	–
353.15 K, m1 = 0.0698	501.2 ± 14	–
353.15 K, m1 = 0.0986	502.9 ± 17	–
353.15 K, m1 = 0.119	498.1 ± 14	–
353.15 K, m1 = 0.1492	501.2 ± 12	–
358.15 K, m1 = 0.0188	504 ± 47	969.86 ± 0.24
358.15 K, m1 = 0.0418	498.1 ± 24	971.46 ± 0.23
358.15 K, m1 = 0.0698	503.5 ± 14	972.88 ± 0.23
358.15 K, m1 = 0.0986	505.2 ± 16	974.54 ± 0.23
358.15 K, m1 = 0.119	501.3 ± 14	975.86 ± 0.23
358.15 K, m1 = 0.1492	503.6 ± 11	977.9 ± 0.22
363.15 K, m1 = 0.0188	506 ± 46	–
363.15 K, m1 = 0.0418	499.6 ± 24	–
363.15 K, m1 = 0.0698	504.4 ± 14	–
363.15 K, m1 = 0.0986	505.7 ± 16	–
363.15 K, m1 = 0.119	504.1 ± 13	–
363.15 K, m1 = 0.1492	504.3 ± 11	–
368.15 K, m1 = 0.0188	–	963.12 ± 0.25
368.15 K, m1 = 0.0418	–	964.48 ± 0.25
368.15 K, m1 = 0.0698	–	966.14 ± 0.25
368.15 K, m1 = 0.0986	–	967.86 ± 0.24
368.15 K, m1 = 0.119	–	969.19 ± 0.24
368.15 K, m1 = 0.1492	–	970.84 ± 0.24
